Experimental data: publication PMC9518264, “Design and synthesis of novel quinazolinone-based derivatives as EGFR inhibitors with antitumor activity” (Journal of Enzyme Inhibition and Medicinal Chemistry, 2022)

How the values were obtained:
Test in all cases: cells
Type in all cases: cell-based
CCRF-CEM = system: CCRF-CEM
HL-60(TB) = system: HL-60(TB)
MOLT-4 = system: MOLT-4
A549/ATCC = system: A549/ATCC
EKVX = system: EKVX
HOP-62 = system: HOP-62
HOP-92 = system: HOP-92
NCI-H226 = system: NCI-H226
NCI-H322M = system: NCI-H322M
NCI-H460 = system: NCI-H460
NCI-H522 = system: NCI-H522
COLO-205 = system: COLO-205
HCC-2998 = system: HCC-2998
HCT-116 = system: HCT-116
HCT-15 = system: HCT-15
KM12 = system: KM12
SF-268 = system: SF-268
SF-295 = system: SF-295
SF-539 = system: SF-539
SNB-19 = system: SNB-19
SNB-75 = system: SNB-75
U251 = system: U251
LOX IMIV = system: LOX IMIV
[1] = Homo sapiens, 5 doses, read-out: LC50 (the source's name)
[2] = Homo sapiens, read-out: growth inhibition % (GI%)

Question: Which results are given for `O=C(CSc1nc2ccccc2c(=O)n1-c1ccc(Cl)cc1)NN=Cc1ccc(Oc2ccc(Cl)cc2)cc1` [6d, N'-(4–(4-chlorophenoxy)benzylidene)-2-((3–(4-chlorophenyl)-4-oxo-3,4-dihydroquinazolin-2-yl)thio)acetohydrazide]?
Answer: TGI (CCRF-CEM; 5 doses): 48.5 µM; GI50 (CCRF-CEM; Homo sapiens): 3.09 µM; CC50 (CCRF-CEM; [1]): > 100 µM; inhibition at 10 µM (CCRF-CEM; [2]): > 100%; TGI (HL-60(TB); HL-60(TB), 5 doses): 37.0 µM; GI50 (HL-60(TB); Homo sapiens, HL-60): 16 µM; inhibition at 10 µM (HL-60(TB); Homo sapiens, HL-60, read-out: growth inhibition % (GI%)): < 15%; CC50 (HL-60(TB); Homo sapiens, HL-60(TB), 5 doses, read-out: LC50 (the source's name)): 85.7 µM; GI50 (MOLT-4; Homo sapiens, MOLT-4): 2.29 µM; inhibition at 10 µM (MOLT-4; Homo sapiens, MOLT-4, read-out: growth inhibition % (GI%)): > 100%; CC50 (MOLT-4; Homo sapiens, MOLT-4, 5 doses, read-out: LC50 (the source's name)): 44.7 µM; TGI (MOLT-4; MOLT-4, 5 doses): 9.23 µM; TGI (A549/ATCC; A549/ATCC, 5 doses): 14.0 µM; GI50 (A549/ATCC; Homo sapiens, A549): 3.25 µM; inhibition at 10 µM (A549/ATCC; Homo sapiens, A549, read-out: growth inhibition % (GI%)): 83.5%; LC50 (lethal concentration, 50% cell kill) (A549/ATCC; Homo sapiens, A549/ATCC, 5 doses): 83.3 µM; TGI (EKVX; 5 doses): 13.9 µM; GI50 (EKVX; Homo sapiens): 3.1 µM; LC50 (EKVX; Homo sapiens, 5 doses): 63.6 µM; inhibition at 10 µM (EKVX; [2]): 59.2%; TGI (HOP-62; HOP-62, 5 doses): 4.05 µM; GI50 (HOP-62; Homo sapiens, HOP-62): 1.69 µM; inhibition at 10 µM (HOP-62; Homo sapiens, HOP-62, read-out: growth inhibition % (GI%)): 67.4%; CC50 (HOP-62; Homo sapiens, HOP-62, 5 doses, read-out: LC50 (the source's name)): 9.69 µM; TGI (HOP-92; HOP-92, 5 doses): 5.62 µM; GI50 (HOP-92; Homo sapiens, HOP-92): 2.07 µM; inhibition at 10 µM (HOP-92; Homo sapiens, HOP-92, read-out: growth inhibition % (GI%)): 97.4%; LC50 (concentration killing 50% of cells) (HOP-92; Homo sapiens, HOP-92, 5 doses): 22.8 µM; GI50 (NCI-H226; Homo sapiens, NCI-H226): 2.46 µM; inhibition at 10 µM (NCI-H226; Homo sapiens, NCI-H226, read-out: growth inhibition % (GI%)): 24.4%; LC50 (NCI-60 50% lethal concentration) (NCI-H226; Homo sapiens, NCI-H226, 5 doses): 33.2 µM; TGI (NCI-H226; NCI-H226, 5 doses): 6.59 µM; TGI (NCI-H322M; 5 doses): 15.0 µM; GI50 (NCI-H322M; Homo sapiens): 3.02 µM; CC50 (NCI-H322M; [1]): 90.8 µM; inhibition at 10 µM (NCI-H322M; [2]): < 15%; GI50 (NCI-H460; Homo sapiens, NCI-H460): 0.789 µM; inhibition at 10 µM (NCI-H460; Homo sapiens, NCI-H460, read-out: growth inhibition % (GI%)): > 100%; LC50 (concentration killing 50% of cells) (NCI-H460; Homo sapiens, NCI-H460, 5 doses): 7.78 µM; TGI (NCI-H460; NCI-H460, 5 doses): 2.6 µM; GI50 (NCI-H522; Homo sapiens, NCI-H522): 2.34 µM; inhibition at 10 µM (NCI-H522; Homo sapiens, NCI-H522, read-out: growth inhibition % (GI%)): 79.3%; CC50 (NCI-H522; Homo sapiens, NCI-H522, 5 doses, read-out: LC50 (the source's name)): 42.6 µM; TGI (NCI-H522; NCI-H522, 5 doses): 8.31 µM; TGI (COLO-205; COLO 205, 5 doses): 8.74 µM; GI50 (COLO-205; Homo sapiens, COLO 205): 2.79 µM; inhibition at 10 µM (COLO-205; Homo sapiens, COLO 205, read-out: growth inhibition % (GI%)): 85.4%; LC50 (COLO-205; Homo sapiens, COLO 205, 5 doses): 91.6 µM; TGI (HCC-2998; HCC-2998, 5 doses): 3.81 µM; GI50 (HCC-2998; Homo sapiens, HCC 2998): 1.92 µM; inhibition at 10 µM (HCC-2998; Homo sapiens, HCC 2998, read-out: growth inhibition % (GI%)): 79.7%; LC50 (lethal concentration 50%) (HCC-2998; Homo sapiens, HCC-2998, 5 doses): 7.57 µM; TGI (HCT-116; HCT-116, 5 doses): 3.74 µM; GI50 (HCT-116; Homo sapiens, HCT-116): 1.55 µM; inhibition at 10 µM (HCT-116; Homo sapiens, HCT-116, read-out: growth inhibition % (GI%)): > 100%; CC50 (HCT-116; Homo sapiens, HCT-116, 5 doses, read-out: LC50 (the source's name)): 9.03 µM; TGI (HCT-15; HCT-15, 5 doses): 7.48 µM; GI50 (HCT-15; Homo sapiens, HCT-15): 2.41 µM; inhibition at 10 µM (HCT-15; Homo sapiens, HCT-15, read-out: growth inhibition % (GI%)): 89.6%; LC50 (concentration causing 50% net cell kill) (HCT-15; Homo sapiens, HCT-15, 5 doses): 28.5 µM; GI50 (KM12; Homo sapiens, KM12): 2.04 µM; inhibition at 10 µM (KM12; Homo sapiens, KM12, read-out: growth inhibition % (GI%)): 82.6%; CC50 (KM12; Homo sapiens, KM12, 5 doses, read-out: LC50 (the source's name)): 26.6 µM; TGI (KM12; KM12, 5 doses): 5.0 µM; GI50 (SF-268; Homo sapiens, SF-268): 3.85 µM; inhibition at 10 µM (SF-268; Homo sapiens, SF-268, read-out: growth inhibition % (GI%)): 44.2%; LC50 (SF-268; Homo sapiens, SF-268, 5 doses): > 100 µM; TGI (SF-268; SF-268, 5 doses): 23.9 µM; GI50 (SF-295; Homo sapiens, SF-295): 3.61 µM; inhibition at 10 µM (SF-295; Homo sapiens, SF-295, read-out: growth inhibition % (GI%)): 35.3%; CC50 (SF-295; Homo sapiens, SF-295, 5 doses, read-out: LC50 (the source's name)): 36.4 µM; TGI (SF-295; SF-295, 5 doses): 13.3 µM; GI50 (SF-539; Homo sapiens, SF-539): 2.54 µM; inhibition at 10 µM (SF-539; Homo sapiens, SF-539, read-out: growth inhibition % (GI%)): 30.3%; CC50 (SF-539; Homo sapiens, SF-539, 5 doses, read-out: LC50 (the source's name)): 21.5 µM; TGI (SF-539; SF-539, 5 doses): 6.32 µM; GI50 (SNB-19; Homo sapiens, SNB-19): 3.36 µM; inhibition at 10 µM (SNB-19; Homo sapiens, SNB-19, read-out: growth inhibition % (GI%)): 71.5%; CC50 (SNB-19; Homo sapiens, SNB-19, 5 doses, read-out: LC50 (the source's name)): 53.2 µM; TGI (SNB-19; SNB-19, 5 doses): 12.7 µM; GI50 (SNB-75; Homo sapiens, SNB-75): 3.99 µM; inhibition at 10 µM (SNB-75; Homo sapiens, SNB-75, read-out: growth inhibition % (GI%)): 42.1%; CC50 (SNB-75; Homo sapiens, SNB-75, 5 doses, read-out: LC50 (the source's name)): > 100 µM; TGI (SNB-75; SNB-75, 5 doses): 29.2 µM; GI50 (U251; Homo sapiens, U-251): 1.65 µM; inhibition at 10 µM (U251; Homo sapiens, U-251, read-out: growth inhibition % (GI%)): > 100%; CC50 (U251; Homo sapiens, U-251, U251, 5 doses, read-out: LC50 (the source's name)): 8.23 µM; TGI (U251; U251, 5 doses): 3.69 µM; inhibition at 10 µM (LOX IMIV; Homo sapiens, 60 cell, read-out: growth inhibition % (GI%)): > 100%; GI50 (LOX IMIV; Homo sapiens, LOX IMVI): 1.29 µM; CC50 (LOX IMIV; Homo sapiens, LOX IMVI, 5 doses, read-out: LC50 (the source's name)): 5.2 µM; TGI (LOX IMIV; LOX IMVI, 5 doses): 2.59 µM
